{"source": "patent US20110229521A1", "about": "“NUTRITIONAL SUPPORT OF THE IMMUNE SYSTEM DURING ANTI-CANCER TREATMENT” (priority 2008, published 2011)", "key": {"[1]": {"assay": "Body weight, haematological evaluation and flow cytometry of tumor-bearing mice on supplemented diets with chemotherapy (Example 2)", "format": "in vivo, C57BL/6 (H-2b) mice", "settings": "for Global lymphocyte population: following chemotherapy", "description": "(§1) Mice. […] The animals were distributed into 7 different group diets. There was a control group that received the diet AIN 93 for adult rodents (maintenance). […] Control animals without chemotherapeutic treatment were run in parallel for all tested diets. Body weight was assessed every two days. Blood samples were obtained at day 2, 4 and 10 after the chemo-treatment and at sacrifice (14 or 28 days). An autopsy was performed and tumor mass was assessed.\nHaematological evaluation.\nFlow cytometric analysis."}, "MCA-OVA tumor cells": {"test_system": "MCA-OVA tumor cells", "assay": "Tumor growth evaluation by caliper, supplemented diets with or without chemotherapy (Example 2)", "format": "in vivo, C57BL/6 (H-2b) mice", "description": "as §1\n(§2) Cancer Cell Lines. Methylcholanthrene (MCA) induced sarcoma cell line expressing the exogenous antigen ovalbumin (OVA) was grown in DMEM or RPMI 1640 supplemented with 2 mM L-glutamine, 10 mM HEPES, 20 μM 2-mercaptoethanol, 150 U/mL streptomycin, 200 U/mL penicillin, and 10% heat-inactivated FBS. 1×10 ^6 tumor cells were injected in the flank of the mice 6 days prior to the chemotherapy.\nTumor growth evaluation. Growth of tumors was monitored every 2 d by using calipers, and tumor volume was calculated by using the formula length×width×width×0.52 mm^3."}, "[2]": {"test_system": "Methylcholanthrene (MCA) induced sarcoma cell line expressing the exogenous antigen for ovalbumin (OVA)", "assay": "Tumor growth evaluation by caliper after chemotherapy (Example 1)", "format": "in vivo, C57BL/6 (H-2b) mice", "description": "as §2, with “antigen for” for “antigen”, “were” for “was”, “1×10^6” for “1×10 ^6”\nGrowth of tumors was monitored every 2 d by using calipers, and tumor volume was calculated by using the formula length×width×width×0.52 mm^3."}, "[3]": {"assay": "Body weight, haematological evaluation and flow cytometry of tumor-bearing mice after chemotherapy (Example 1)", "protocol": "Mice. Inbred eight-week-old C57BL/6 (H-2b) mice were used in the experiments. Mice were inoculated subcutaneously (s.c.) on the left flank with 1×10 ^6 tumor cells, and tumor growth was monitored every 2 days by caliper measurement. 6 days after the tumor inoculation the animals were treated either with oxaliplatin or doxorubicin. Tumor growth was monitored every two days after the chemotherapeutic treatment and they were sacrificed after two weeks of tumor implantation. Some experiments were carried out until 28 days post-chemo to better assess tumor growth.\nBody weight was assessed every two days until sacrifice.\nBlood samples were obtained at day 2 and 4 after the chemo-treatment, at day 10 and at sacrifice (14 or 28 days). An autopsy was performed and tumoral mass was assessed.\nHaematological evaluation. Red blood cell enumeration, hemoglobin and hematocrit were measured at 2, 4, 10, 14 and 28 days.\nWhite blood cell counts and differential leukocyte formulation were examined at the same time points. Blood samples were used in addition to determine immune cell populations.\nFlow cytometric analysis. Cell subset analysis of the CD11c^+, CD11b^+Gr-1^+ and CD11b^+Gr-1^−, CD14^+, CD19^+, CD16^+, CD56^+, CD3^+, CD8^+, CD4^+ was performed. The battery of antibodies used permitted the evaluation of: B and T cell subsets NK, NKT cells, macrophages, dendritic cells, granulocytes."}, "γδ T cells": {"test_system": "γδ T cells", "settings": "acid hydrolysed, diluted in media; peripheral blood mononuclear cells; cited from earlier work"}}, "data": [{"molecule": "NC(=O)CC[C@H](N)C(=O)O", "note": "[glutamine]", "values": [{"measurement": "Global lymphocyte population", "setting": "[1]; supplemented diet", "result": "less depressed following chemotherapy"}]}, {"molecule": "N=C(N)NCCC[C@H](N)C(=O)O", "note": "[arginine, L-arginine]", "values": [{"measurement": "tumor size", "setting": "MCA-OVA tumor cells; combination with the chemotherapy treatment versus chemotherapy alone, FIG. 4", "result": "further reduced the tumor size"}, {"measurement": "progression of the implanted tumor", "setting": "MCA-OVA tumor cells; supplemented diet compared to other groups", "result": "delayed progression"}, {"measurement": "loss of CD3+ cells", "setting": "[1]; after chemotherapy, supplemented diet", "result": "partially modulated"}, {"measurement": "immune cell population / concentration", "setting": "[1]; second phase (tumor-induced toxicity)", "result": "increase immune cell concentration"}, {"measurement": "fall of erythrocytes after chemotherapy", "setting": "[1]; supplemented diet, days 6 to 10 post-chemo, FIG. 3", "result": "prevented the marked fall of erythrocytes"}]}, {"molecule": "O=C1[O][Pt]2([NH][C@@H]3CCCC[C@H]3[NH]2)[O]C1=O", "note": "[oxaliplatin]", "values": [{"measurement": "tumor growth rate versus control (no chemotherapy)", "setting": "[2]; treatment group oxa-10, FIG. 2, divergence at day 14", "result": "slower rate than the control"}, {"measurement": "tumor growth rate versus control (no chemotherapy)", "setting": "[2]; treatment group oxa-12.5, FIG. 2, divergence at day 14", "result": "slower rate than the control"}, {"measurement": "white blood cell counts", "setting": "[3]", "result": "higher that the baseline counts"}]}, {"molecule": "CCNC(=O)CC[C@H](N)C(=O)O", "note": "[L-theanine]", "values": [{"measurement": "expansion of γδ T cells", "setting": "γδ T cells", "result": 15, "unit": "fold"}]}, {"molecule": "NC(=O)NCCC[C@H](N)C(=O)O", "note": "[citrulline, L-citrulline]", "values": [{"measurement": "Global lymphocyte population", "setting": "[1]; supplemented diet", "result": "less depressed following chemotherapy"}]}]}
